Measured values as given in patent US8598357B2, “Benzodioxole piperidine compounds” (Hoffmann-La Roche Inc., priority 2011, dated 2013).
pKi: −log10 of the molar value. Read-outs that look alike come from different tables or passages of the source.

Key:
[1] = molecular target: D2 receptor (Homo sapiens (Human), UniProt P14416); test: Radioligand binding assay ([3H]-spiperone) on membranes of HEK293 EBNA cells expressing human D2 receptor; settings: human receptor in HEK293 EBNA cells; 0.7 nM [3H]-spiperone
Chain of D2 receptor (P14416 whole entry): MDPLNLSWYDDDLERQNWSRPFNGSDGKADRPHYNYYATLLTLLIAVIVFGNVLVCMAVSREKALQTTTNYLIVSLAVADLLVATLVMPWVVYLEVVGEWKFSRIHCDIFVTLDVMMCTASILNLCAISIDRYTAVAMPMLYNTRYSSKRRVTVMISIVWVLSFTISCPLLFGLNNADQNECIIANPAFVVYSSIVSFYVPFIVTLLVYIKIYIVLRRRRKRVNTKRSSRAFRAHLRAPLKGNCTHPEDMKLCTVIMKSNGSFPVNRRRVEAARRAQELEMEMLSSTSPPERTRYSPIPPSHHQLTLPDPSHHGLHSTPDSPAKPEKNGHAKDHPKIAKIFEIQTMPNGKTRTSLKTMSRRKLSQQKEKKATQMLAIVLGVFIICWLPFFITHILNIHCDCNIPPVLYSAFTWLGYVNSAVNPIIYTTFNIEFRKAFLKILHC
Protocol: (§1) HEK293 EBNA cells were transiently transfected with expression plasmids encoding for the human D2 or D3 or for the human 5-HT2A receptor, respectively. The cells were harvested 48 h post-transfection, washed three times with cold PBS and stored at −80° C. prior to use. The pellet was suspended in cold 50 mM Tris-HCl buffer containing 10 mM EDTA (pH 7.4) and was homogenized with a Polytron (Kinematica AG, Basel, Switzerland) for 20-30 sec at 12.000 rpm. After centrifugation at 48.000×g for 30 min at 4° C., the pellet was resuspended in cold 10 mM Tris-HCl buffer containing 0.1 mM EDTA (pH 7.4), homogenized, and centrifuged as above. This pellet was further resuspended in a smaller volume of ice cold 10 mM Tris-HCl buffer containing 0.1 mM EDTA (pH 7.4) and homogenized with a Polytron for 20-30 sec at 12.000 rpm. The protein content of this homogenate was determined with the Bio-Rad (Bradford) Protein Assay (Biorad Laboratories GmbH, München, Germany) according to the instructions of the manufacturer using gamma globulin as the standard. This homogenate was stored at −80° C. in aliquots and thawed immediately prior to use.
(§2) Aliquots of membrane preparations were thawed at RT, resuspended in assay buffer (D2, D3: 50 mM Tris-HCl, 120 mM NaCl, 5 mM MgCl2, 1 mM EDTA, 5 mM KCl, 1.5 mM CaCl2, pH=7.4; 5-HT2A: 50 mM Tris-HCl, 10 mM MgCl2, 1 mM EGTA, pH=7.4), homogenized with a Polytron for 20-30 sec at 12.000 rpm and adjusted to a final concentration of approximately 7.5 μg protein/well (D2, D3) and 15 μg protein/well (5-HT2A), respectively.
(§3) The nonspecific binding was determined with equally composed reaction mixtures in the presence of 10 μM unlabelled spiperone. Per well 45 μl of Microscint 40 (Perkin Elmer, Schwerzenbach, Switzerland) was added, plates for sealed, shaken for 20 min and counted for 3 min on a Topcount Microplate Scintillation Counter (Can berra Packard SA, Ziirich, Switzerland) with quenching correction.
(§4) The CPM value for each duplicate of a concentration of competing compound was averaged (y1), then the % specific binding was calculated according to the equation (((y1−non-specific)/(total binding−non-specific))×100). Graphs were plotted with the % specific binding using XLfit, a curve fitting program that iteratively plots the data using Levenberg-Marquardt algorithm. The single site competition analysis equation used was y=A+((B−A)/(1+((x/C)D))), where y is the % specific binding, A is the minimum y, B is the maximum y, C is the IC50, x is the log 10 of the concentration of the competing compound and D is the slope of the curve (the Hill Coefficient). […] The affinity constant (K) was calculated using the Cheng-Prusoff equation Ki=(IC50/1+([L]/Kd), where [L] is the concentration of radioligand and Kd is the dissociation constant of the radioligand at the receptor as determined by the saturation isotherm.

[2] = molecular target: D3 receptor (Homo sapiens (Human), UniProt P35462); test: Radioligand binding assay ([3H]-spiperone) on membranes of HEK293 EBNA cells expressing human D3 receptor; settings: read-out: D3 Ki; human receptor in HEK293 EBNA cells; 0.5 nM [3H]-spiperone
Chain of D3 receptor (P35462 whole entry): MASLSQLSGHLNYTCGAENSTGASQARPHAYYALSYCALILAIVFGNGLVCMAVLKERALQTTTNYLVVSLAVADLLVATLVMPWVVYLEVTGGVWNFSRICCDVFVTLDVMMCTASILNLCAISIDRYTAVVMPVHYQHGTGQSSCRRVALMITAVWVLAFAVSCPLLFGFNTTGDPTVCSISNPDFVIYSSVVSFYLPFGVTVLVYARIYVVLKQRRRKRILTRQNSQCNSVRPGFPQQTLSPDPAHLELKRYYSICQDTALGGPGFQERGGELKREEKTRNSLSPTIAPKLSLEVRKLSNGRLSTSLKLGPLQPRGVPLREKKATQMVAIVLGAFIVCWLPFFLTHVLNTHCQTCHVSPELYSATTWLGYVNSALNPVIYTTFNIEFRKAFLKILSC
Protocol: as §1, §2, §3, §4

[3] = molecular target: 5-HT2A receptor (Homo sapiens (Human), UniProt P28223); test: Radioligand binding assay ([3H]-ketanserin) on membranes of HEK293 EBNA cells expressing human 5-HT2A receptor; settings: read-out: 5HT2A Ki
[4] = human receptor in HEK293 EBNA cells, 1.1 nM [3H]-ketanserin

Row | Compound | pKi [1] | pKi [2] | pKi [3] | pKi [3, 4]
1 | CC(C)C(=O)N[C@H]1CC[C@H](CCN2CCC(c3cccc4c3OCO4)CC2)CC1 [Example 23, Trans-N-{4-[2-(4-Benzo[1,3]dioxol-4-yl-piperidin-1-yl)-ethyl]-cyclohexyl}-isobutyramide] | 6.40 | 8.08 | 7.77 | 
2 | O=C(CO)N[C@H]1CC[C@H](CCN2CCC(c3cccc4c3OCO4)CC2)CC1 [Example 65, Trans-N-{4-[2-(4-Benzo[1,3]dioxol-4-yl-piperidin-1-yl)-ethyl]-cyclohexyl}-2-hydroxy-acetamide] | 6.53 | 8.04 |  | 7.67
3 | O=C(N[C@H]1CC[C@H](CCN2CCC(c3cccc4c3OCO4)CC2)CC1)C1CC(Cl)C1 (stereo partly drawn) [Example 28, 3-Chloro-cyclobutanecarboxylic acid trans-{4-[2-(4-benzo[1,3]dioxol-4-yl-piperidin-1-yl)-ethyl]-cyclohexyl}-amide] | 6.52 | 8.20 | 7.73 | 
4 | CO[C@H](C)C(=O)N[C@H]1CC[C@H](CCN2CCC(c3cccc4c3OCO4)CC2)CC1 [Example 34, Trans-(R)—N-{4-[2-(4-Benzo[1,3]dioxol-4-yl-piperidin-1-yl)-ethyl]-cyclohexyl}-2-methoxy-propionamide] | 6.30 | 7.56 |  | 8.02
5 | CC(C)(O)CC(=O)N[C@H]1CC[C@H](CCN2CCC(c3cccc4c3OCO4)CC2)CC1 [Example 35, Trans-N-{4-[2-(4-Benzo[1,3]dioxol-4-yl-piperidin-1-yl)-ethyl]-cyclohexyl}-3-hydroxy-3-methyl-butyramide] | 6.55 | 8.23 |  | 7.58
6 | O=C(CC1CCCO1)N[C@H]1CC[C@H](CCN2CCC(c3cccc4c3OCO4)CC2)CC1 (stereo partly drawn) [Example 6, Trans-N-{4-[2-(4-Benzo[1,3]dioxol-4-yl-piperidin-1-yl)-ethyl]-cyclohexyl}-2-(tetrahydro-furan-2-yl)-acetamide] | 6.41 | 8.04 | 7.68 | 
7 | O=C(C[C@@H]1CCCO1)N[C@H]1CC[C@H](CCN2CCC(c3cccc4c3OCO4)CC2)CC1 [Example 17, Trans-N-{4-[2-(4-Benzo[1,3]dioxol-4-yl-piperidin-1-yl)-ethyl]-cyclohexyl}-2-(S)-tetrahydro-furan-2-yl-acetamide] | 6.27 | 8.19 | 7.47 | 
8 | O=C(C[C@@H]1CCCCO1)N[C@H]1CC[C@H](CCN2CCC(c3cccc4c3OCO4)CC2)CC1 [Example 40, Trans-N-{4-[2-(4-Benzo[1,3]dioxol-4-yl-piperidin-1-yl)-ethyl]-cyclohexyl}-2-(S)-tetrahydro-pyran-2-yl-acetamide] | 6.37 | 8.05 | 7.55 | 
9 | CC(C)(O)C(=O)N[C@H]1CC[C@H](CCN2CCC(c3cccc4c3OCO4)CC2)CC1 [Example 32, Trans-N-{4-[2-(4-Benzo[1,3]dioxol-4-yl-piperidin-1-yl)-ethyl]-cyclohexyl}-2-hydroxy-2-methyl-propionamide] | 6.39 | 7.60 | 8.32 | 
10 | O=C(C[C@H]1CCCOC1)N[C@H]1CC[C@H](CCN2CCC(c3cccc4c3OCO4)CC2)CC1 [Example 43, Trans-N-{4-[2-(4-Benzo[1,3]dioxol-4-yl-piperidin-1-yl)-ethyl]-cyclohexyl}-2-(R)-tetrahydro-pyran-3-yl-acetamide] | 6.39 | 8.11 |  | 7.70
11 | O=C(C[C@H]1CCCO1)N[C@H]1CC[C@H](CCN2CCC(c3cccc4c3OCO4)CC2)CC1 [Example 16, Trans-N-{4-[2-(4-Benzo[1,3]dioxol-4-yl-piperidin-1-yl)-ethyl]-cyclohexyl}-2-(R)-tetrahydro-furan-2-yl-acetamide] | 6.64 | 7.97 | 7.55 | 
12 | O=C(N[C@H]1CC[C@H](CCN2CCC(c3cccc4c3OCO4)CC2)CC1)C1(O)CCCCC1 [Example 66, 1-Hydroxy-cyclohexanecarboxylic acid-trans-N-{4-[2-(4-benzo[1,3]dioxol-4-yl-piperidin-1-yl)-ethyl]-cyclohexyl}-amide] | 6.66 | 7.76 | 8.41 | 
13 | CCCC(=O)N[C@H]1CC[C@H](CCN2CCC(c3cccc4c3OCO4)CC2)CC1 [Example 25, Trans-N-{4-[2-(4-Benzo[1,3]dioxol-4-yl-piperidin-1-yl)-ethyl]-cyclohexyl}-butyramide] | 6.56 | 8.24 |  | 7.45
14 | O=C(N[C@H]1CC[C@H](CCN2CCC(c3cccc4c3OCO4)CC2)CC1)C1(O)CC1 [Example 49, 1-Hydroxy-cyclopropanecarboxylic acid-trans-{4-[2-(4-benzo[1,3]dioxol-4-yl-piperidin-1-yl)-ethyl]-cyclohexyl}-amide] | 6.61 | 8.22 | 8.09 | 
15 | O=C(Cc1ccc2c(c1)OCO2)N[C@H]1CC[C@H](CCN2CCC(c3cccc4c3OCO4)CC2)CC1 [Example 59, 2-Benzo[1,3]dioxol-5-yl-trans-N-{4-[2-(4-benzo[1,3]dioxol-4-yl-piperidin-1-yl)-ethyl]-cyclohexyl}-acetamide] | 6.49 | 8.40 |  | 7.43
16 | O=C(N[C@H]1CC[C@H](CCN2CCC(c3cccc4c3OCO4)CC2)CC1)[C@@H](O)C(F)(F)F [Example 39, Trans-(R)—N-{4-[2-(4-Benzo[1,3]dioxol-4-yl-piperidin-1-yl)-ethyl]-cyclohexyl}-3,3,3-trifluoro-2-hydroxy-propionamide] | 6.55 | 7.70 | 7.71 | 
17 | N#CCC(=O)N[C@H]1CC[C@H](CCN2CCC(c3cccc4c3OCO4)CC2)CC1 [Example 20, Trans-N-{-4-[2-(4-Benzo[1,3]dioxol-4-yl-piperidin-1-yl)-ethyl]-cyclohexyl}-2-cyano-acetamide] | 6.69 | 8.51 | 7.65 | 
18 | O=C(C[C@H]1CCCCO1)N[C@H]1CC[C@H](CCN2CCC(c3cccc4c3OCO4)CC2)CC1 [Example 41, Trans-N-{4-[2-(4-Benzo[1,3]dioxol-4-yl-piperidin-1-yl)-ethyl]-cyclohexyl}-2-(R)-tetrahydro-pyran-2-yl-acetamide] | 6.31 | 8.12 | 7.90 | 
19 | O=C(N[C@H]1CC[C@H](CCN2CCC(c3cccc4c3OCO4)CC2)CC1)C(O)C(F)(F)F (stereo partly drawn) [Example 12, Trans-N-{4-[2-(4-Benzo[1,3]dioxol-4-yl-piperidin-1-yl)-ethyl]-cyclohexyl}-3,3,3-trifluoro-2-hydroxy-propionamide] | 6.63 | 8.07 | 7.85 | 
20 | CN1CCC(C(=O)N[C@H]2CC[C@H](CCN3CCC(c4cccc5c4OCO5)CC3)CC2)CC1 [Example 61, 1-Methyl-piperidine-4-carboxylic acid-trans-N-{4-[2-(4-benzo[1,3]dioxol-4-yl-piperidin-1-yl)-ethyl]-cyclohexyl}-amide] | 6.83 | 7.45 |  | 8.23
21 | COCC(=O)N[C@H]1CC[C@H](CCN2CCC(c3cccc4c3OCO4)CC2)CC1 [Example 13, Trans-N-{4-[2-(4-Benzo[1,3]dioxol-4-yl-piperidin-1-yl)-ethyl]-cyclohexyl}-2-methoxy-acetamide] | 6.29 | 7.75 | 7.84 | 
